Reference: article PMC9014415, “Repositioning of a Diaminothiazole Series Confirmed to Target the Cyclin-Dependent Kinase CRK12 for Use in the Treatment of African Animal Trypanosomiasis” (Journal of Medicinal Chemistry, 2022)

Key:
Protein plasma binding = type: in vitro ADME; settings: mouse
Protocol: 2.4 Protein plasma binding
This was determined as previously described.6
2.5 PK and maximum tolerated dose - mouse
PK studies in female NMRI mice (Figure S1): Test compounds 1, 2 and 10 were dosed SC at 10 mg free base/kg (dose volume 10 mL/kg; dose vehicle: 5% (v/v) DMSO, 40% polyethylene glycol 400 (PEG400) and 55% deionized water) to female NMRI mice (n = 3). Blood samples (10 μL) were taken from each mouse at 0.08, 0.25, 0.5, 1, 2, 4, 6, 8 h post dose (24 h post dose for compounds 2 and 10 only) and mixed with two volumes of deionized water (20 μL). Alternatively, compound 2 was delivered for 48 h via SC implanted ALZET osmotic pumps (10, 25 and 50 mg free base/mL, vehicle: 50% DMSO and 50% deionized water) to the female NMRI mouse (n = 3). Blood samples (10 μL) from each mouse were taken at 1, 3, 6, 24, 30 and 48 h post-dose and mixed with two volumes of deionized water (20 μL).
Compound 1 as free base in 5% DMSO; 40% PEG400; 55% MilliQ water was dosed daily subcutaneously with doses of 50 mg/kg, 100 mg/kg and 300 mg/kg for 3 days.
2.6 PK and formulation studies - male Sprague rats […]

[1] = Ames test for potential genotoxicity
[2] = target: T1, Phosphoglycerate kinase (PGK) (Trypanosoma brucei brucei, UniProt P07378); test: SILAC pull-down with resin-bound 13, competition by compound 2; type: binding; settings: procyclic lysate; compound 2 10 μM vs DMSO; mean of three experiments
T1 construct: endogenous in cells; host or cells: Trypanosoma brucei procyclic form, whole-cell lysate
T1 sequence (P07378 whole entry): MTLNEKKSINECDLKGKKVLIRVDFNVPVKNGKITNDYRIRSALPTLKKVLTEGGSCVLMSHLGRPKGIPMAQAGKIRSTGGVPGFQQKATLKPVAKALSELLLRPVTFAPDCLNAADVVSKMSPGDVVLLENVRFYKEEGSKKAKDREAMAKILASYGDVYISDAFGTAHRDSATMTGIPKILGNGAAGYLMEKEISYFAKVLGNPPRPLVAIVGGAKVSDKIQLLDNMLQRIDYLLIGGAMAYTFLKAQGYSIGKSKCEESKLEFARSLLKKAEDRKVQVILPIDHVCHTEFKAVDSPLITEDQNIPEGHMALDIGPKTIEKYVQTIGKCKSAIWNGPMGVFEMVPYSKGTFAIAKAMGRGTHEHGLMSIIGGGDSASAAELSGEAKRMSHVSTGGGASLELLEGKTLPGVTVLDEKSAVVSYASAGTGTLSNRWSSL
Protocol: Chemical proteomic studies were carried out by immobilizing an analogue of compound 2 (probe 13; Figure 3A and Scheme 4) to magnetic beads via a polyethyleneglycol (PEG) linker. Appropriate attachment sites for the PEG linker were informed by the established structure–activity relationships within this series, and an advanced intermediate toward the final derivatized compound was screened against both bloodstream and procyclic forms of T. brucei to ensure that it retained potency. The analogue was immobilized by attachment to NHS-ester-activated paramagnetic beads. Activated beads were then incubated in SILAC (stable isotope labeling by amino acids in cell culture)-labeled T. brucei procyclic whole-cell lysates in the presence or absence of compound 2 (10 μM) with either “light-“ or “heavy”-labeled lysate. After combining the eluates from the beads and performing proteomic analyses, proteins that bound specifically to the diaminothiazole pharmacophore were distinguished from proteins that bound non-specifically to the beads by virtue of compound 2:DMSO tryptic peptide isotope ratios. As a result of these studies, four kinases and a cyclin were identified as specific binders of the compound 2-derivatized beads (Figure 3B and Table S11). It should be noted that of the four kinases identified, only CRK12 has been established as essential for survival of T. brucei.[14] […]

Structure (SMILES) | fraction unbound (Protein plasma binding) | Ames [1] | Log2 ratio DMSO/compound [2]
CC(C)CS(=O)(=O)N[C@H]1CC[C@H](Nc2nc(N)c(C(=O)c3c(F)cccc3F)s2)CC1 [Compound 1, N-((trans)-4-((4-Amino-5-(2,6-difluorobenzoyl)thiazol-2-yl)amino)cyclohexyl)-2-methylpropane-1-sulfonamide] | 0.16 | negative | –
CC(C)CS(=O)(=O)N[C@H]1CC[C@H](Nc2nc(N)c(C(=O)c3c(F)cc(CN(C)C)cc3F)s2)CC1 [Compound 2, N-(trans)-[4-[[4-Amino-5-[4-(dimethylaminomethyl)-2,6-difluoro-benzoyl]thiazol-2-yl]amino]cyclohexyl]-2-methyl-propane-1-sulfonamide] | – | – | 1.92
